Here are results for 1 molecule from PMC11232110 (RSC Advances, 2024).

This experiment deals with enoyl acyl carrier protein reductase (InhA) (Mycobacterium tuberculosis, UniProt P9WGR1). Description: InhA enzyme inhibition assay. Format: biochemical.
Chain of enoyl acyl carrier protein reductase (InhA) (P9WGR1 whole entry, looked up): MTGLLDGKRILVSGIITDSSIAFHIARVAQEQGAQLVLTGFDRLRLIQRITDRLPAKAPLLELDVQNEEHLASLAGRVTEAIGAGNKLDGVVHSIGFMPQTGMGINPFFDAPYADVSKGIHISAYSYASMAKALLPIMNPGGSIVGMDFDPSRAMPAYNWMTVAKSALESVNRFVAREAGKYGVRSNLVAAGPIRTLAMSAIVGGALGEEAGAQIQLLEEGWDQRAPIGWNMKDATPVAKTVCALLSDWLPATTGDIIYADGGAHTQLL

For `O=c1cc(-c2ccccc2)c2cc(Cl)c(OCc3nnn(CCN4CCOCC4)n3)cc2o1` [4c, 7-((2-(2-Morpholinoethyl)-2H-tetrazol-5-yl)methoxy)-6-chloro-4-phenyl-2H-chromen-2-one], the IC50 came out at 565 ± 20 nM.

In general, IC50 refers to the point on the concentration scale where inhibition reaches its midpoint.
